pIC50: −log10 of the molar value.
biological target: human CB1 (cannabinoid receptor 1) (Homo sapiens, UniProt P21554); experiment: CB1 receptor inhibition effect: calcium ion influx assay (Fluo-4 NW) in Chem-1 cells after 1 μM R-(+)-WIN55212-2; assay type: cell-based; conditions: Chem-1 cells stably expressing human CB1; agonist 1 μM R-(+)-WIN55212-2; compared with Examples 5 and 222
Summary of the method: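 Chem-1 cells stably expressing human CB1 were exposed to compound (0.5% DMSO) for 10 minutes in HBSS/HEPES/probenecid, then stimulated with 1 μM R-(+)-WIN55212-2. Fluo-4 calcium flux was recorded for 80 s. Percent inhibition was calculated from max−min RFU relative to agonist-only and blank wells.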

human CB1 (cannabinoid receptor 1), sequence (P21554 whole entry): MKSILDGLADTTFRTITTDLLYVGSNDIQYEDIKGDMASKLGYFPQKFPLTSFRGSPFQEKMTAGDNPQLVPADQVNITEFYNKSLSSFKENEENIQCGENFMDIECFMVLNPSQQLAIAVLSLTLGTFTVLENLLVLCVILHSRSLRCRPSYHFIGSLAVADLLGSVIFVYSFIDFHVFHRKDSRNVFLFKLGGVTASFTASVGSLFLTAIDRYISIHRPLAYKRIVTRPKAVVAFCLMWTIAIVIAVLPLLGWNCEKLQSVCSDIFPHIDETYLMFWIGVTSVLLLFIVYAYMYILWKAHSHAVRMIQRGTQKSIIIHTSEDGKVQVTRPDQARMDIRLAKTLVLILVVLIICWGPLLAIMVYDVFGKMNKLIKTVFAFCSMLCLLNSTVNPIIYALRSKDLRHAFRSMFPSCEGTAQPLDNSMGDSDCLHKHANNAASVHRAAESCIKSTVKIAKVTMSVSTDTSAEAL

Compound	CB1 receptor inhibition effect, (R)-isomers compared with (S)-isomers
COCc1nn2c(-c3ccc(F)cc3)cc(N3CCC[C@@H]3CO)nc2c1-c1ccc(OC)cc1 [Example 306]	lower CB1 receptor inhibition effect than the compounds of Examples 5 and 222

same assay, conditions: calcium ion influx in Chem-1 cells expressing human CB1, 1 μM R-(+)-WIN55212-2

Compound	pIC50
COCc1nn2c(-c3cccc(Cl)c3)cc(N3CCC[C@H]3CO)nc2c1-c1ccc(OC)cc1 [Example 230]	7.74
COCc1nn2c(-c3ccc(F)cc3)cc(N3CCC[C@H]3CO)nc2c1-c1ccc(Cl)cc1 [Example 231]	8.15
COCc1nn2c(-c3cccc(F)c3)cc(N3CCC[C@H]3CO)nc2c1-c1ccc(Cl)cc1 [Example 232]	8.40
COCc1nn2c(-c3cccc(C(F)(F)F)c3)cc(N3CCC[C@H]3CO)nc2c1-c1ccc(Cl)cc1 [Example 233]	8.22
COCc1nn2c(-c3cccc(C)c3)cc(N3CCC[C@H]3CO)nc2c1-c1ccc(Cl)cc1 [Example 234]	7.82
COCc1nn2c(-c3cccc(C(F)(F)F)c3)cc(N3CCC[C@H]3CO)nc2c1-c1ccc2c(c1)OCO2 [Example 238]	7.62
CCOCc1nn2c(-c3ccc(F)cc3)cc(N(C)CCO)nc2c1-c1ccc(C)cc1 [Example 239, 2-{[2-ethoxymethyl-7-(4-fluorophenyl)-3-(4-methylphenyl)-pyrazolo[1,5-a]pyrimidin-5-yl]methylamino}ethanol]	7.55
CCOCc1nn2c(-c3cccc(C(F)(F)F)c3)cc(N(C)CCO)nc2c1-c1ccc(C)cc1 [Example 241]	8.00
CCOCc1nn2c(-c3cccc(C(F)(F)F)c3)cc(N(C)CCO)nc2c1-c1ccc(Cl)cc1 [Example 244]	8.15
CCOCc1nn2c(-c3ccc(F)cc3)cc(N(C)CCO)nc2c1-c1ccc(OC)cc1 [Example 245]	6.36
CCOCc1nn2c(-c3cccc(Cl)c3)cc(N(C)CCO)nc2c1-c1ccc(OC)cc1 [Example 248]	6.22
CCOCc1nn2c(-c3cccc(OC)c3)cc(N(C)CCO)nc2c1-c1ccc2c(c1)OCO2 [Example 252]	7.00
CCOCc1nn2c(-c3cccc(C(F)(F)F)c3)cc(N(C)CCO)nc2c1-c1ccc2c(c1)OCO2 [Example 253]	6.72
CCOCc1nn2c(-c3cccc(Cl)c3)cc(N(C)CCO)nc2c1-c1ccc2c(c1)OCO2 [Example 254]	6.89
COCc1nn2c(-c3cccc(C(F)(F)F)c3)cc(N(C)CCO)nc2c1-c1ccc(OC)cc1 [Example 257]	7.85
COCc1nn2c(-c3cccc(F)c3)cc(N(C)CCO)nc2c1-c1ccc(Cl)cc1 [Example 261]	8.05
COCc1nn2c(-c3cccc(C)c3)cc(N(C)CCO)nc2c1-c1ccc(Cl)cc1 [Example 262]	7.74
CCOCc1nn2c(-c3ccc(F)cc3)cc(NCCO)nc2c1-c1ccc(C)cc1 [Example 263, 2-[2-ethoxymethyl-7-(4-fluorophenyl)-3-(4-methylphenyl)-pyrazolo[1,5-a]pyrimidin-5-yl-amino]ethanol]	7.05
Cc1ccc(-c2cnn3c(-c4cccc(F)c4)cc(N4CCC[C@H]4CO)nc23)cc1 [Example 270]	6.36
Cc1ccc(-c2cnn3c(-c4cc(F)cc(F)c4)cc(N4CCC[C@H]4CO)nc23)cc1 [Example 273]	6.64
OC[C@@H]1CCCN1c1cc(-c2cccc(C(F)(F)F)c2)n2ncc(-c3ccc(F)cc3)c2n1 [Example 276]	6.47

Results, then the compound that gave them:

pIC50	Compound
6.16	Cc1ccc(-c2cnn3c(-c4ccc(F)c(F)c4)cc(N4CCC[C@H]4CO)nc23)cc1 [Example 272]
6.35	Cc1ccc(-c2cnn3c(-c4ccc(F)cc4)cc(N4CCC[C@H]4CO)nc23)cc1 [Example 269, (S)-(1-(3-(4-methylphenyl)-7-(4-fluorophenyl)-pyrazolo[1,5-a]pyrimidin-5-yl)pyrrolidin-2-yl)methanol]
6.52	CCOCc1nn2c(-c3cccc(OC)c3)cc(NCCO)nc2c1-c1ccc2c(c1)OCO2 [Example 268]
7.52	CCCCc1nn2c(-c3cccc(C)c3)cc(N3CCC[C@H]3CO)nc2c1-c1ccc(C)cc1 [Example 289]
7.66	COCc1nn2c(-c3cccc(C#N)c3)cc(N3CCC[C@H]3CO)nc2c1-c1ccc(OC)cc1 [Example 228]
7.80	CCOCc1nn2c(-c3cccc(C(F)(F)F)c3)cc(N(C)CCO)nc2c1-c1ccc(OC)cc1 [Example 247]
8.00	CCOCc1nn2c(-c3cccc(F)c3)cc(N(C)CCO)nc2c1-c1ccc(C)cc1 [Example 240]
8.10	CCCCc1nn2c(-c3cccc(C(F)(F)F)c3)cc(N3CCC[C@H]3CO)nc2c1-c1ccc(C)cc1 [Example 288]
8.15	CCOCc1nn2c(-c3cccc(F)c3)cc(N(C)CCO)nc2c1-c1ccc(Cl)cc1 [Example 243]
8.15	COCc1nn2c(-c3ccc(F)cc3)cc(N(C)CCO)nc2c1-c1ccc(Cl)cc1 [Example 260]

same assay, conditions: compound at 1 μM; calcium ion influx in Chem-1 cells expressing human CB1, 1 μM R-(+)-WIN55212-2

Compound	inhibition at 1 µM [%]
COCc1nn2c(-c3ccc(F)cc3)cc(N3CCC[C@@H]3CO)nc2c1-c1ccc(OC)cc1 [Example 306]	< 5

same assay, conditions: compound at 3 μM; calcium ion influx in Chem-1 cells expressing human CB1, 1 μM R-(+)-WIN55212-2

Compound	inhibition at 3 µM [%]
Cc1nn2c(-c3ccccc3)cc(N3CCC[C@@H]3CO)nc2c1-c1ccc(Cl)cc1 [Example 305]	~5

Source: US8975264B2, “Compound acting as a cannabinoid receptor-1 inhibitor” (Amorepacific Corporation, priority 2010, dated 2015)
